Key:
[1] = biological target: T1, binding between PCSK9 and the LDL receptor (Homo sapiens, UniProt Q8NBP7); assay: In vitro PCSK9-LDLR binding assay (CircuLex kit)
T1 construct: purchased CircuLex
Procedure: Compounds were assayed for their ability to inhibit the binding between PCSK9 and the LDL receptor using a CircuLex PCSK9-LDLR in vitro binding assay kit. The procedure employed the reagents and buffers included in the kit as follows. 88 μL of 1× reaction buffer was placed into each well. 5 μL of test compound in 20% DMSO was added into each well. 10 mM solutions of test compounds in DMSO were diluted by 3-fold series to give 6-point concentration curves. The compounds were then diluted 20-fold with the reaction buffer. To each well was then added 7 μL of His-tagged PCSK9 wild type solution (1000 ng/mL). The plate was then covered with a plate sealer and incubated at room temperature for 3 hours, shaking at 300 rpm on an orbital microplate shaker. The test solutions were washed 4 times with 350 μL wash buffer. One 100 μL of biotinylated anti-His-tag monoclonal antibody was added to each well. The plate was covered with a plate sealer, and incubated at room temperature for 1 h, shaking at 300 rpm. The test solutions were washed 4 times with 350 μL wash buffer. […] of HRP-conjugated streptavidin was added to each well. The plate was covered with a plate sealer, and incubated at room temperature for 20 min, shaking at 300 rpm. The test solutions were washed 4 times with 350 μL wash buffer. 100 μL of substrate reagent was added into each well. The plate was covered with a plate sealer, and incubated at room temperature for 15 min, shaking at 300 rpm. Finally, 100 μL of stop solution was added to each well in the same order as the previously added substrate reagent.
The results of the binding assay are shown in FIG. 3, reported as IC50 (μM).

Caco-2 cells = assay: Caco2 assay; type: in vitro ADME, human; conditions: 10 μM, 90 min
Procedure: Caco-2 cells are a human colon epithelial cancer cell line used as a model of human intestinal absorption of drugs and other compounds. The compounds were assessed for their oral suitability in this assay, as compounds with good oral bioavailability likely evade efflux by pumps. The permeability coefficient (Papp) denotes the permeability of the drug through a monolayer of cells. Transport is assessed in both directions (apical to basolateral (A-B) and basolateral to apical (B-A)) across the cell monolayer to enable an efflux ratio to be determined which provides an indicator as to whether a compound undergoes active efflux.
Caco-2 cells were removed from an incubator and the cell monolayer was washed with HBSS buffer before the Transepithelial/transendothelial electrical resistance (TEER) was measured at room temperature. The transport experiment was started by adding 10 μM solution of test compounds in HBSS buffer containing luciferase yellow to the apical side. A sample from the apical chamber was taken at t=0 min. The volumes of the apical and basal sides were 400 μL and 800 μL respectively. The apical and basolateral plates were incubated at 37° C. for 90 min. After 90 min, the apical plate was separated from the basolateral plate and an aliquot from the basolateral side was transferred to an opaque plate for the determination of lucifer yellow concentration at t=90 min. The luciferase yellow concentration of each sample was measured by fluorimetry using excitation and emission wavelengths of 485 nm and 535 nm, respectively. Samples from the donor and receiver chambers were diluted with 0.4% DMSO in HBSS then mixed with ACN and either osalmid or imipramine, which were used as an IS in preparation for analysis by LC-MS/MS. Samples were then assayed for their levels of test compounds using an UPLC-MS/MS-29(API6500+) or an LC-MS/MS-014(API4000) instrument operating in a positive electrospray ionisation mode.

APOE*3-Leiden.CETP mice = assay: In vivo efficacy study: compound 29 monotherapy; conditions: for reduction of total plasma cholesterol levels compared to the vehicle control: over a period of four weeks
Procedure: Female APOE*3-Leiden.CETP mice (˜10-14 weeks old) were obtained from the SPF breeding stock at TNO-Metabolic Health Research (Leiden).
Mice were housed in macrolon cages (maximum of 6 mice per cage) in clean-conventional animal rooms (relative humidity 50-60%, temperature ˜21° C., light cycle 7 am to […]). Mice were fed a semi-synthetic western type diet with 15% saturated fat and 0.15% (w/w) cholesterol and were provided with heat-sterilized tap water and food ad libitum.
Forty female APOE*3-Leiden.CETP mice were allowed to acclimate to these conditions for a 3 week run-in period prior to the removal of 8 low-responder mice. […] In the final week of the run-in diet, all mice received vehicle solution (5% DMSO, 5% Solutol HS15, 90% saline) twice daily by oral gavage to accustom the animals to the procedure. After matching, mice received vehicle solution only (Group 1) or compound 29 in vehicle solution (Groups 2, 3 and 4) for the remainder of the study by twice daily administration using oral gavage in a volume of 5 mL/kg body weight. On days 0, 3, 7, 14, 21 and 28 of treatment, blood samples were taken after 4 h of fasting, from which EDTA plasma was collected and used for measurement of plasma total cholesterol. Lipoprotein profiles were determined on day 0, 14 and 28 in group pooled plasma samples using an equal volume of plasma per mouse. On day 28, directly after the last blood sampling point, mice were sacrificed via CO2 asphyxiation, fasted. At sacrifice, EDTA-plasma samples were obtained via heart puncture.
EDTA plasma blood samples were obtained after 4 h fasting. Animals were placed under a red light lamp for at least 10 minutes. The tail was fixed and the mice were allowed to move freely during blood collection and were not fixed to avoid additional stress. […]
Total plasma cholesterol and triglyceride levels were determined using a […] from Roche.
Analyses were performed in samples pooled per group. Cholesterol levels were measured using a “Cholesterol CHOD-PAP” kit from Roche.

T1 sequence (Q8NBP7 153-692): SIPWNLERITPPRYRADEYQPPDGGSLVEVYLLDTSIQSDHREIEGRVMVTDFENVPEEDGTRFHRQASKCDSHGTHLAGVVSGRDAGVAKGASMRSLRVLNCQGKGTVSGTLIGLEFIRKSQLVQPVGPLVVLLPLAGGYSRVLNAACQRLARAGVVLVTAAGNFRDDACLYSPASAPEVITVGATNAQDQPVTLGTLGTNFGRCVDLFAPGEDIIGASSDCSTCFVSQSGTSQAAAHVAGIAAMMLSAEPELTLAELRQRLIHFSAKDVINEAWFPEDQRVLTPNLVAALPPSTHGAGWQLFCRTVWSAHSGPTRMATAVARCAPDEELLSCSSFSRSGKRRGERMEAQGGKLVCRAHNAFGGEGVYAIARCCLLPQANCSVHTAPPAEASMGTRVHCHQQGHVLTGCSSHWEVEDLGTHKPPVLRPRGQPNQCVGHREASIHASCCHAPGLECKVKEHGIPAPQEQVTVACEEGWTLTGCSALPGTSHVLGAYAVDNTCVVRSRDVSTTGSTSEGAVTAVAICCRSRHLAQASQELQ
T1 sequence (Q8NBP7 31-152 partner limits assumed): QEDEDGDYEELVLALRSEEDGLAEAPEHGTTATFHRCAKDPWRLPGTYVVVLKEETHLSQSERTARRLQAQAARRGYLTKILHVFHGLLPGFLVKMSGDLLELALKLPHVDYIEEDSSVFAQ

IC50 [1]	bioavailability indicated by the in vitro Caco2 study (Caco-2 cells)	Compound	plasma PCSK9 levels (APOE*3-Leiden.CETP mice; 30 and 50 mg/kg bid oral, over four weeks)	reduction of total plasma cholesterol levels compared to the vehicle control (APOE*3-Leiden.CETP mice; oral dosing 30 mg/kg)	reduction of total plasma cholesterol levels compared to the vehicle control (APOE*3-Leiden.CETP mice; oral dosing 50 mg/kg)
279 nM	good bioavailability	Cc1ccc(-c2cc(CN3CCC(F)(F)[C@H](N)C3)cc(NC(=O)c3cc(-c4ccccc4)ccn3)c2)cn1 [Compound 122]			
320 nM	good bioavailability	Cc1cn(-c2cc(CN3CCC[C@H](N)C3)cc(NC(=O)c3cc(-c4ccccc4)ccn3)c2)cn1 [compound 29, (S)—N-(3-((3-aminopiperidin-1-yl)methyl)-5-(4-methyl-1H-imidazol-1-yl)phenyl)-4-phenylpicolinamide]	increase in plasma PCSK9 levels	more than 30%	> 50%
547 nM	good bioavailability	Cc1cnc(C(=O)Nc2cc(CN3CCC(F)(F)[C@H](N)C3)cc(-c3ccc(C(F)(F)F)nc3)c2)cc1-c1ccccc1 [compound 131]			
